Data published in patent publication US9952208B2, “Means and methods for bioluminescence resonance energy transfer (BRET) analysis in a biological sample” (priority 2013, dated 2018).

System: DIG10.3
Test: Binding of tethered ligand to binding protein DIG10.3

CC(=O)[C@H]1CC[C@H]2[C@@H]3CCC4=CC(=O)CC[C@]4(C)[C@H]3CC[C@]12C [Progesterone, progesterone]
binding to DIG10.3: binds weakly
